Values after ≈ are worked out from the molar mass of the structure shown. Read-outs that look alike come from different tables or passages of the source.
Columns and labels:
[1] = Solubility in water, buffers and physiological fluids; assay type: physicochemical
Excerpt: Tipifarnib is a methyl-quinolinone with a molecular formula of C27H22Cl2N4O and molecular weight of 489.40. […] These are safe and well tested excipients that are commonly used in marketed products. The film coatings of the tablets contain hypromellose, titanium dioxide, lactose monohydrate, polyethylene glycol, and triacetin. “Tipifarnib derivative” as used herein refers not only to R208176 but also to molecules closely structurally related to either tipifarnib or R208176 with similar pharmacologic activity against HDV; this term includes, for example and without limitation, compounds described in U.S. Pat. Nos. 6,169,096; 6,365,600; 6,420,387; 6,734,194; 6,743,805; 6,838,467; and 7,253,183.
R208176 is an off-white, non-hygroscopic and crystalline powder. It has a molecular weight of 501.4 Daltons and a molecular formula of C25H18Cl2N8.

[2] = cited from earlier work

solubility ([1]; 0.1 N HCl, simulated gastric fluid, read-out: solubility in 0.1 N HCl) [µg/mL]	solubility in 0.1 N NaOH ([1]; 0.1 N NaOH)	solubility ([1]; aqueous buffer, citrate-HCl buffer pH 4, read-out: solubility in citrate-HCl buffer pH 4) [µg/mL]	solubility in borate-HCl buffer pH 8 ([1]; borate-HCl buffer pH 8)	solubility in borate-KCl—NaOH buffer pH 10 ([1]; borate-KCl—NaOH buffer pH 10)	solubility in citrate-HCl buffer pH 2 ([1]; citrate-HCl buffer pH 2)	solubility in citrate-NaOH buffer pH 6 ([1]; citrate-NaOH buffer pH 6)	solubility ([1]; gastric fluid, simulated gastric fluid, read-out: solubility in gastric fluid) [µg/mL]	solubility in intestinal fluid ([1]; intestinal fluid)	SMILES	solubility in water [1]	solubility in 0.1 N HCl ([1]; 0.1 N HCl)	solubility in citrate-HCl buffer ([1]; citrate-HCl buffer)	solubility in citrate-NaOH buffer ([1]; citrate-NaOH buffer)	solubility in phosphate buffers ([1]; phosphate buffers)	DLTs at 200 mg BID ([2]; 200 mg BID dose, dosed for 200 days)	patients stopping treatment due to adverse events (grade 3 or 4) ([2]; 13 cancer patients)	Dose limiting toxicities ([2]; cancer patients, continuous oral BID dosing)	MTD ([2]; cancer patients, orally BID, continuous dosing for up to 56 days) [mg]	Most common AEs ([2]; cancer patients)
10000 to 33000 (≈ 19.9 to 65.8 mM)	practically insoluble	100 to 1000 (≈ 0.199 to 1.99 mM)	practically insoluble	practically insoluble	slightly soluble	practically insoluble	10000 to 33000 (≈ 19.9 to 65.8 mM)	practically insoluble	Cn1cncc1[C@@](N)(c1ccc(Cl)cc1)c1ccc2c(c1)c(-c1cccc(Cl)c1)nc1nnnn12 [R208176]	practically insoluble	–	–	–	–	–	–	–	–	–
–	–	–	–	–	–	–	–	–	Cn1cncc1[C@@](N)(c1ccc(Cl)cc1)c1ccc2c(c1)c(-c1cccc(Cl)c1)cc(=O)n2C [tipifarnib, (R)-6-[amino(4-chlorophenyl)(1-methyl-1H-imidazol-5-yl)methyl]-4-(3-chlorophenyl)-1-methyl-2(1H)-quinolinone]	insoluble	moderately soluble	slightly soluble	insoluble	insoluble	No DLTs were observed	4 of 13	granulocytopenia and neuropathy	300	gastrointestinal-related
